Laboratory results published in US8389555B2, “Medicaments” (Motac Neuroscience Limited, priority 2007, dated 2013).
Structures can show the parent of a compound that is named as a salt.

What was measured:
[1] = molecular target: T1, recombinant human D2(short) dopamine receptor (Homo sapiens, UniProt P14416); assay: Dopamine D2S receptor binding assay ([3H]spiperone, CHO cell membranes); settings: human D2S receptors in CHO cells, 0.2 nM [3H]spiperone, mean ± SEM; read-out: Affinity Ki (D2)
T1 construct: expressed in transfected cells; host or cells: CHO-D2S cells (per Hayes et al. 1992)
Outline: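 Membranes from CHO cells expressing human D2S receptor, incubated with 0.2 nM [3H]spiperone in Tris-HCl pH 7.4 with NaCl, KCl, CaCl2, MgCl2, 120 min at 25 °C; nonspecific binding with 10 μM BP 897. Filtration and scintillation counting; seven concentrations in triplicate, Ki from IC50 by Cheng-Prusoff, mean±SEM.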

[2] = test system: 6-OHDA-lesioned rat model of Parkinson's disease; assay: Rotational behaviour in 6-OHDA-lesioned rat model of Parkinson's disease; type: in vivo; settings: for short or long acting in vivo / onset of action: in vivo model; for onset and persistence of activity: following oral or intra-peritoneal application, FIGS. 12, 16, 17
Protocol: Preparation of 6-OHDA-Lesioned Rat Model of Parkinson's Disease
Male Sprague-Dawley rats weighing 290-350 g were used. The rats were housed in a temperature-controlled room under a 12 hour light/dark cycle with free access to food and water. Thirty minutes prior to surgery, the animals were given the monoamine oxidase-B inhibitor pargyline (5 mg/kg i.p.;) and the noradrenaline uptake inhibitor desipramine (25 mg/kg i.p.). The rats were then placed under general anaesthesia (Flourothane) and immobilised in stereotaxic frame. Following reflection of cranial skin and periostium, a small bur-hole was made in the skull on the right side and a small puncture was made in the dura mater. Each animal then received a unilateral injection of 2.5 μl of the neurotoxin 6-hydroxydopamine hydrobromide (6-OHDA HBr; 5 mg/ml in sterile water with 0.1% ascorbic acid; i.e. 12.5 μg 6-OHDA per rat) into the right medial forebrain bundle at stereotaxic co-ordinates −2.8 mm from bregma, 2 mm lateral to the midline, and 9 mm below the skull. The 6-OHDA injection was made over a 5 minute period using a 5 μl Hamilton syringe. The rats were allowed to recover for 3 weeks following the lesion. Animals then received 0.05 mg/kg s.c. apomorphine to assess the extent of lesion. Animals displaying clear rotational behaviour directed contralateral to the lesioned side were selected for further studies.
Only lesioned animals were used in the study (as determined by apomorphine rotation).
Animals were administered a dose of the test compound at 1 mg/kg or 3 mg/kg (i.p.) and rotational behaviour was assessed for up to 4 hours following drug administration using automated rotometers. Alternatively, animals were administered a dose of the test compound at 10 mg/kg (p.o.) and rotational behaviour was assessed for up to 8 hours following drug administration using automated rotometers.
Each compound was administered to at least 5 rats.
Total net rotational activity. This parameter is calculated as the total number of 180° rotations (net contralateral) over the duration of the experiment.
Data were analysed independently for each novel compound with appropriate parametric statistics. All tests were carried out in Graphpad Prism Version 3.

[3] = molecular target: T2, human dopamine D3 receptors (Homo sapiens, UniProt P35462); assay: Dopamine D3 receptor binding assay ([3H]spiperone, CHO cell membranes); settings: for Ki: human D3 receptors in CHO cells, 0.2 nM [3H]spiperone, mean ± SEM, read-out: Affinity Ki (D3); for Selectivity Ki(D2)/Ki(D3): ratio of Ki(D2) to Ki(D3)
T2 construct: expressed in transfected cells
Outline: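 CHO cell membranes expressing human D3 incubated with 0.2 nM [3H]spiperone in Tris-HCl pH 7.4 with 120 mM NaCl, 5 mM KCl, 2 mM CaCl2, 1 mM MgCl2 at 25° C for 120 min; nonspecific binding with 10 μM BP 897. Filtration read-out; seven concentrations in triplicate, Ki via Cheng-Prusoff.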

[4] = patients treated with pramipexole; cited from earlier work

T2 sequence (P35462 whole entry): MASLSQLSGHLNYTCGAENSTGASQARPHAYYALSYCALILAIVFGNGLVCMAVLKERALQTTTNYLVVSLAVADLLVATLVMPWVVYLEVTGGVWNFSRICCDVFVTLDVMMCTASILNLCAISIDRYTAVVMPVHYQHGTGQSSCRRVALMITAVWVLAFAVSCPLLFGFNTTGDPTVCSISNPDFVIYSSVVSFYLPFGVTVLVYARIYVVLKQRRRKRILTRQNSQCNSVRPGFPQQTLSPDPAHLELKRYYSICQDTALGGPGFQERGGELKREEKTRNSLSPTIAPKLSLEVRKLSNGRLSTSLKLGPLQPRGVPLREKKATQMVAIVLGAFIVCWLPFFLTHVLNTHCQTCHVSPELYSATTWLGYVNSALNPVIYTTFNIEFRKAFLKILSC
T1 sequence (P14416 1-414 isoform P14416-2): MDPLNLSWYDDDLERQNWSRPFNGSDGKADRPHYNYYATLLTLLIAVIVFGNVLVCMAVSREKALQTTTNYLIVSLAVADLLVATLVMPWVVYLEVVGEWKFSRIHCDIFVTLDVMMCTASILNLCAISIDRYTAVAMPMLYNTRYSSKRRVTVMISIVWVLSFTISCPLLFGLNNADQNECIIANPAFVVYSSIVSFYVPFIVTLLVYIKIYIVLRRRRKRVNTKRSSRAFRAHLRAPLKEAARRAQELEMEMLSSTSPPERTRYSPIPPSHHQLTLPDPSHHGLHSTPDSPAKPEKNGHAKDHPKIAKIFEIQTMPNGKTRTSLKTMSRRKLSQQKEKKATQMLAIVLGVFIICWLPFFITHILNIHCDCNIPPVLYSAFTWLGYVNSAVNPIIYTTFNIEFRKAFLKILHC

Compound | Ki [1] [nM] | Ki [3] [nM] | Selectivity Ki(D2)/Ki(D3) [3] | short or long acting in vivo [2] | onset and persistence of activity [2] | action at increasing doses ([2]; i.p. at 1 and 3 mg/kg) | onset of action [2] | patients who may develop oedema [4]
CCCN(CCCCNC(=O)N1CCc2cc(OC)c(OC)cc2C1)C1CCc2ncsc2C1 (stereo not shown) [Compound 25, 6,7-Dimethoxy-3,4-dihydro-1H-isoquinoline-2-carboxylic acid {4-[propyl-(4,5,6,7-tetrahydro-benzothiazol-6-yl)-amino]-butyl}-amide] | 7610 ± 1810 | 2.67 ± 1.32 | 2850 | short acting |  |  |  | 
CCN(CCN(CC)C1CCc2ncsc2C1)C1CCc2ncsc2C1 (stereo not shown) [Compound 33, N,N′-Diethyl-N,N′-bis-(4,5,6,7-tetrahydro-benzothiazol-6-yl)-ethane-1,2-diamine] | 468 ± 13.5 | 22.7 ± 13.5 | 19 |  | rapid onset of activity and also have a sustained effect |  |  | 
CCCN[C@H]1CCc2nc(N)sc2C1 [pramipexole, (S)-2-amino-4,5,6,7-tetra-hydro-6-(propylamino)benzothiazole dihydrochloride mono-hydrate] |  |  |  |  |  |  |  | 1-10%

More lines, main results first:

Ki [1] [nM] | Ki [3] [nM] | Selectivity Ki(D2)/Ki(D3) [3] | Compound | short or long acting in vivo [2] | onset and persistence of activity [2] | action at increasing doses ([2]; i.p. at 1 and 3 mg/kg) | onset of action [2] | patients who may develop oedema [4]
132 ± 40 | 4.5 ± 0.7 | 29 | CCCN(CCN1CCN(c2ccccc2OC)CC1)C1CCc2ncsc2C1 (stereo not shown) [Compound 34, {2-[4-(2-Methoxy-phenyl)-piperazin-1-yl]-ethyl}-propyl-(4,5,6,7-tetrahydro-benzothiazol-6-yl)-amine] |  | rapid onset of activity and also have a sustained effect | substantially constant action | fast acting | 
3180 ± 1730 | 12.9 ± 3.8 | 247 | CCCN(CCN1CCN(C(=O)c2cccc3ccccc23)CC1)C1CCc2ncsc2C1 (stereo not shown) [Compound 39, [2-(4-Naphthoyl-piperazin-1-yl)-ethyl]-propyl-(4,5,6,7-tetrahydro-benzothiazol-6-yl)-amine] | short acting |  |  | fast acting | 
1390 ± 304 | 0.9 ± 0.05 | 1550 | CCCN(CCCCC(=O)NC1Cc2ccccc2C1)C1CCc2ncsc2C1 (stereo not shown) [Compound 67, N-(2,3-dihydro-1H-inden-2-yl)-5-(propyl-(4,5,6,7-tetrahydrobenzothiazol-6-yl)amino)pentanamide] | short acting |  |  |  | 
457 ± 228 | 1.54 ± 0.46 | 297 | CCCN(CCCCC(=O)NC12CC3CC(CC(C3)C1)C2)C1CCc2ncsc2C1 (stereo not shown) [Compound 68, N-Adamantanyl-5-(propyl-(4,5,6,7-tetrahydrobenzothiazol-6-yl)amino)pentanamide] |  | sustained activity over a number of hours |  |  | 
